Results: patent US9932314B2, “Pyrazole compounds and their use as T-type calcium channel blockers” (IDORSIA PHARMACEUTICALS LTD, priority 2015, dated 2018)

Biological target: T1, voltage-dependent T-type calcium channel subunit alpha-1G (Cav3.2) (Homo sapiens, UniProt O95180)
T1 construct: expressed in transfected cells; host or cells: HEK293
Assay: FLIPR calcium flux assay, HEK293 cells recombinantly expressing Cav3.2
Type: cell-based
Settings: Cav3.2-channel, Fluo-4-AM, 3 min incubation, stimulation with 10 mM CaCl2
Experimental: In Vitro Methods—Measurement of Calcium Channel Flux by Means of FLIPR Assays.
HEK293 cells recombinantly expressing either voltage-dependent T-type calcium channel subunit […] (Cav3.2) or voltage-dependent L-type calcium channel subunit alpha-1C (Cav1.2) are assayed for calcium flux using the calcium indicator dye Fluo-4-AM (Molecular Devices) and FLIPR technology (Fluorometric Imaging Plate Reader, Molecular Devices) (Xie X, Van Deusen A L, Vitko I, Babu D A, Davies L A, Huynh N, Cheng H, Yang N, Barrett P Q, Perez-Reyes E. Validation of high throughput screening assays against three subtypes of Ca(v)3 T-type channels using molecular and pharmacologic approaches. Assay and Drug Development Technologies 2007, 5(2), 191-203). The HEK293 cells recombinantly expressing Cav3.2 are maintained in DMEM growth medium (Life Technologies) supplemented with 10% Fetal Bovine Serum (FBS), 100 U/ml penicilin (Life Technologies), 100 μg/ml streptomycin (Life Technologies) and 1 mg/ml G418 (Life Technologies). HEK293 cells recombinantly expressing Cav1.2 are maintained in DMEM growth medium (Life technologies) supplemented with 10% FBS, 0.1 mg/ml G418 (Life Technologies), 0.1 mg/ml hygromycin (Life Technologies) and 40 ug/ml zeocin (Life Technologies).
The seeded plates are incubated overnight at 37° C.
The cells are then washed three times with assay buffer (HBSS 1×; 0.375 g/L NaHCO3; 20 mM Hepes; 1% FBS; pH 7.4) and allowed to rest in 50 μl of wash buffer for 30 minutes.
Stock solutions of test compounds are prepared to a concentration of 10 mM in DMSO. For the Cav3.2 assay, serial dilutions of the compounds are prepared in TEAC buffer (100 mM tetraethylammonium chloride; 20 mM Hepes; 2.5 mM CaCl2; 5 mM KCl; 1 mM MgCl2; 1% FBS; pH 7.2), for the Cav1.2 assay serial dilutions are prepared in assay buffer. […] The compounds are incubated with the cells for 3 minutes and Ca2+ entry is stimulated by adding either CaCl2 to a final concentration of 10 mM (Cav3.2 assay) or by adding KCl to a final concentration of 20 mM (Cav1.2 assay). The kinetics of fluorescence increase are recorded for every well and the area under the fluorescence trace for every compound concentration is used to generate inhibition curves using non-linear regression sigmoidal concentration-response curve analysis with in-house software.

T1 sequence (O95180 whole entry): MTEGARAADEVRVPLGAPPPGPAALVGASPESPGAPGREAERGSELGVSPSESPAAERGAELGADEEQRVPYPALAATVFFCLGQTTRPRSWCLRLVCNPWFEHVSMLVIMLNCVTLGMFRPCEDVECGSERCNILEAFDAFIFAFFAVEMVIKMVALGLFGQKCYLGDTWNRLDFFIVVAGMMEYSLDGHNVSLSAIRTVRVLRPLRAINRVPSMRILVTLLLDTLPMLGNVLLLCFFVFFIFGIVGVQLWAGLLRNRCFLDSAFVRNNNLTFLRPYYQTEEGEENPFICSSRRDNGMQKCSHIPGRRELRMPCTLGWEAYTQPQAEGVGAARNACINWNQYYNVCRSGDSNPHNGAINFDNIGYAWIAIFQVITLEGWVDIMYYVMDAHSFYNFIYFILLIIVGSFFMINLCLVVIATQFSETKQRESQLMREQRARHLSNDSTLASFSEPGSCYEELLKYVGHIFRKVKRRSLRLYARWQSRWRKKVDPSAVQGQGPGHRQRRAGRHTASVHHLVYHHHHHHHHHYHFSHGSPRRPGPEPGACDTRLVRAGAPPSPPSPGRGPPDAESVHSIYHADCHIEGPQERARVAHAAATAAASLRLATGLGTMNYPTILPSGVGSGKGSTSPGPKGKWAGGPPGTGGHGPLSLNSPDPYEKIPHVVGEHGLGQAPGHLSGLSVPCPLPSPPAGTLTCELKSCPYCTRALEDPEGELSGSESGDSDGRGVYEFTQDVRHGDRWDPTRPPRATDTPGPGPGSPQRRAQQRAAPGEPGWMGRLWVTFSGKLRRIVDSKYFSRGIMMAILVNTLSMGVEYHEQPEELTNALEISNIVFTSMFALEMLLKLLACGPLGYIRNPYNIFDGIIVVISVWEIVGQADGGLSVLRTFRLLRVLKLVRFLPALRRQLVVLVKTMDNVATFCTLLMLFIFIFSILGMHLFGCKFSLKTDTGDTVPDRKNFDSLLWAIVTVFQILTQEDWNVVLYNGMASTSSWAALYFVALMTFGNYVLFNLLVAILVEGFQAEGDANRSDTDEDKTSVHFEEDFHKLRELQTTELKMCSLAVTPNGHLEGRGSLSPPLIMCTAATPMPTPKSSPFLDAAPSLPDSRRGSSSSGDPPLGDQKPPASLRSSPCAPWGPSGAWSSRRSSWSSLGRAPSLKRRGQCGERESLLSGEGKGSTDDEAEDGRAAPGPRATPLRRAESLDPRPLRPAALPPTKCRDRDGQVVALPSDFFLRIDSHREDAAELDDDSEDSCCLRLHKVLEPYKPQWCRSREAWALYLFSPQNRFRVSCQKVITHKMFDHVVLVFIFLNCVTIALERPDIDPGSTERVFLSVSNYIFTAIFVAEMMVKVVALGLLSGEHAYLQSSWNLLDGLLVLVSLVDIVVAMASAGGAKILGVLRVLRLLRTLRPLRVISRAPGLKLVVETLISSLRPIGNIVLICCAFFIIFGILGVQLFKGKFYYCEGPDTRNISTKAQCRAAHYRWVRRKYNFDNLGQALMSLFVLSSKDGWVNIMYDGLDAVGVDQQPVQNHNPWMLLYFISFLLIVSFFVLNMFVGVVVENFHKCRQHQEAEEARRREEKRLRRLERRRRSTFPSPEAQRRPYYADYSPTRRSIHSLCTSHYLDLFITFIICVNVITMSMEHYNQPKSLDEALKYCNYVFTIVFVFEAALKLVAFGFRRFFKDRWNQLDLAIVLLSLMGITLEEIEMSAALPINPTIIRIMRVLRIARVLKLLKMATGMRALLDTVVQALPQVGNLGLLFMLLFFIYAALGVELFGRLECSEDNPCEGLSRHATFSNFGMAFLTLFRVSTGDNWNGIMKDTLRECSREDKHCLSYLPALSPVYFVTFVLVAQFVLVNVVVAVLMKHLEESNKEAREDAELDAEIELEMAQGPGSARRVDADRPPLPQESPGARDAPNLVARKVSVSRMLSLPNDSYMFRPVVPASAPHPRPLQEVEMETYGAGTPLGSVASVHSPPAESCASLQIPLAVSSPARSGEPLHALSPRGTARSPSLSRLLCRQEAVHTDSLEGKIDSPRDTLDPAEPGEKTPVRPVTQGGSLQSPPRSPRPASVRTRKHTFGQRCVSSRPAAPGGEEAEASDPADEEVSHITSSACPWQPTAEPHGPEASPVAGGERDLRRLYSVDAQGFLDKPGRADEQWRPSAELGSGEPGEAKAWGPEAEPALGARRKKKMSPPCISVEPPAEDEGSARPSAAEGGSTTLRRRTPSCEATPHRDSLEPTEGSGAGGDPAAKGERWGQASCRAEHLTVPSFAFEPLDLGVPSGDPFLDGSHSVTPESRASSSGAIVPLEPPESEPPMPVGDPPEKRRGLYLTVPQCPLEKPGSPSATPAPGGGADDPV

IC50 [nM] | Structure (SMILES)
36 | CC1(c2ccc(CC(=O)Nc3ccn(Cc4ccc(F)c(C#N)c4)n3)cc2)COC1 [Example 316, N-[1-(3-Cyano-4-fluoro-benzyl)-1H-pyrazol-3-yl]-2-[4-(3-methyl-oxetan-3-yl)-phenyl]-acetamide]
43 | N#Cc1cc(Cn2ccc(NC(=O)Cc3ccc(OCC(F)(F)F)c(C4CC4)c3)n2)ncc1F [Example 409, N-[1-(4-Cyano-5-fluoro-pyridin-2-ylmethyl)-1H-pyrazol-3-yl]-2-[3-cyclopropyl-4-(2,2,2-trifluoro-ethoxy)-phenyl]-acetamide]
705 | N#Cc1ccc(Cn2ccc(NC(=O)Cc3ccc(C4(F)COC4)cc3)n2)nc1 [Example 246, N-[1-(5-Cyano-pyridin-2-ylmethyl)-1H-pyrazol-3-yl]-2-[4-(3-fluoro-oxetan-3-yl)-phenyl]-acetamide]
269 | N#Cc1ccc(Cn2ccc(NC(=O)Cc3ccc(C4CC4)nc3)n2)cc1F [Example 216, N-[1-(4-Cyano-3-fluoro-benzyl)-1H-pyrazol-3-yl]-2-(6-cyclopropyl-pyridin-3-yl)-acetamide]
19 | O=C(Cc1ccc(OC2CC2)cc1)Nc1ccn(Cc2ccc(F)c(F)c2)n1 [Example 66, 2-(4-Cyclopropoxy-phenyl)-N-[1-(3,4-difluoro-benzyl)-1H-pyrazol-3-yl]-acetamide]
7.6 | CC(C)c1ccc(CC(=O)Nc2ccn(Cc3ccc(C#N)c(F)n3)n2)cc1 [Example 148, N-[1-(5-Cyano-6-fluoro-pyridin-2-ylmethyl)-1H-pyrazol-3-yl]-2-(4-isopropyl-phenyl)-acetamide]
19 | CN(C)c1ccc(CC(=O)Nc2ccn(Cc3ccc(Cl)c(F)c3)n2)cn1 [Example 42, N-[1-(4-Chloro-3-fluoro-benzyl)-1H-pyrazol-3-yl]-2-(6-dimethylamino-pyridin-3-yl)-acetamide]
14 | N#Cc1ccc(Cn2ccc(NC(=O)Cc3ccc(N4CC[C@H](F)C4)cc3)n2)cc1 [Example 74, N-[1-(4-Cyano-benzyl)-1H-pyrazol-3-yl]-2-[4-((S)-3-fluoro-pyrrolidin-1-yl)-phenyl]-acetamide]
1180 | N#Cc1ccc(Cn2ccc(NC(=O)Cc3ccc(N4CC(F)C4)nc3)n2)nc1 [Example 159, N-[1-(5-Cyano-pyridin-2-ylmethyl)-1H-pyrazol-3-yl]-2-[6-(3-fluoro-azetidin-1-yl)-pyridin-3-yl]-acetamide]
1570 | Cc1nc2ccc(CC(=O)Nc3ccn(Cc4ccc(C#N)cc4)n3)cc2[nH]1 [Example 136, N-[1-(4-Cyano-benzyl)-1H-pyrazol-3-yl]-2-(2-methyl-3H-benzoimidazol-5-yl)-acetamide]
9.5 | CC(C)(C)c1ccc(CC(=O)Nc2ccn(Cc3ccc(F)c(C#N)c3)n2)cc1 [Example 283, 2-(4-tert-Butyl-phenyl)-N-[1-(3-cyano-4-fluoro-benzyl)-1H-pyrazol-3-yl]-acetamide]
6.4 | Cc1cc(CC(=O)Nc2ccn(Cc3ccc(C#N)cn3)n2)cc(C)c1OCC(F)(F)F [Example 414, N-[1-(5-Cyano-pyridin-2-ylmethyl)-1H-pyrazol-3-yl]-2-[3,5-dimethyl-4-(2,2,2-trifluoro-ethoxy)-phenyl]-acetamide]
22 | CC(C)c1ccc(CC(=O)Nc2ccn(Cc3ccc(C(F)(F)F)cn3)n2)cc1 [Example 109, 2-(4-Isopropyl-phenyl)-N-[1-(5-trifluoromethyl-pyridin-2-ylmethyl)-1H-pyrazol-3-yl]-acetamide]
133 | CC(C)c1ccc(CC(=O)Nc2ccn(Cc3ccc(C4CC4)cc3)n2)cc1 [Example 192, N-[1-(4-Cyclopropyl-benzyl)-1H-pyrazol-3-yl]-2-(4-isopropyl-phenyl)-acetamide]
191 | CC(C)c1ccc(CC(=O)Nc2ccn(Cc3ccc(C#N)c(C4CC4)n3)n2)cc1 [Example 133, N-[1-(5-Cyano-6-cyclopropyl-pyridin-2-ylmethyl)-1H-pyrazol-3-yl]-2-(4-isopropyl-phenyl)-acetamide]
33 | O=C(Cc1ccc(OCC2CC(F)(F)C2)cc1)Nc1ccn(Cc2ccc(F)c(F)c2)n1 [Example 244, N-[1-(3,4-Difluoro-benzyl)-1H-pyrazol-3-yl]-2-[4-(3,3-difluoro-cyclobutylmethoxy)-phenyl]-acetamide]

IC50 [nM] | Structure (SMILES)
62 | CC1(COc2ccc(CC(=O)Nc3ccn(Cc4cc(F)c(C#N)c(F)c4)n3)cc2)CC(F)(F)C1 [Example 364, N-[1-(4-Cyano-3,5-difluoro-benzyl)-1H-pyrazol-3-yl]-2-[4-(3,3-difluoro-1-methyl-cyclobutylmethoxy)-phenyl]-acetamide]
275 | N#Cc1cc(Cn2ccc(NC(=O)Cc3ccc(OCC4COC4)cc3)n2)ccc1F [Example 279, N-[1-(3-Cyano-4-fluoro-benzyl)-1H-pyrazol-3-yl]-2-[4-(oxetan-3-ylmethoxy)-phenyl]-acetamide]
36 | Cn1cc(C2CCC2)c2cc(CC(=O)Nc3ccn(Cc4ccc(C#N)cn4)n3)ccc21 [Example 323, N-[1-(5-Cyano-pyridin-2-ylmethyl)-1H-pyrazol-3-yl]-2-(3-cyclobutyl-1-methyl-1H-indol-5-yl)-acetamide]
30 | CC(C)c1ccc(CC(=O)Nc2ccn(Cc3cc(F)c(C#N)c(F)c3)n2)cc1 [Example 353, N-[1-(4-Cyano-3,5-difluoro-benzyl)-1H-pyrazol-3-yl]-2-(4-isopropyl-phenyl)-acetamide]
249 | CC1(C)Cc2cc(CC(=O)Nc3ccn(Cc4ccc(C#N)cn4)n3)ccc2O1 [Example 378, N-[1-(5-Cyano-pyridin-2-ylmethyl)-1H-pyrazol-3-yl]-2-(2,2-dimethyl-2,3-dihydro-benzofuran-5-yl)-acetamide]
138 | CC1(COc2ccc(CC(=O)Nc3ccn(Cc4ccc(F)c(C#N)c4)n3)cc2)COC1 [Example 280, N-[1-(3-Cyano-4-fluoro-benzyl)-1H-pyrazol-3-yl]-2-[4-(3-methyl-oxetan-3-ylmethoxy)-phenyl]-acetamide]
93 | CCN(CC)c1ccc(CC(=O)Nc2ccn(Cc3ccc(OC)cc3)n2)cn1 [Example 191, 2-(6-Diethylamino-pyridin-3-yl)-N-[1-(4-methoxy-benzyl)-1H-pyrazol-3-yl]-acetamide]
934 | COC1(c2ccc(CC(=O)Nc3ccn(Cc4ccc(F)c(F)c4)n3)cn2)COC1 [Example 258, N-[1-(3,4-Difluoro-benzyl)-1H-pyrazol-3-yl]-2-[6-(3-methoxy-oxetan-3-yl)-pyridin-3-yl]-acetamide]
49 | Cc1cc(Cn2ccc(NC(=O)Cc3ccc(N(C)C)nc3)n2)ccc1F [Example 39, 2-(6-Dimethylamino-pyridin-3-yl)-N-[1-(4-fluoro-3-methyl-benzyl)-1H-pyrazol-3-yl]-acetamide]
428 | CC(C)Cc1nc(Cn2ccc(NC(=O)Cc3ccc(C(C)C)cc3)n2)ccc1C#N [Example 134, N-[1-(5-Cyano-6-isobutyl-pyridin-2-ylmethyl)-1H-pyrazol-3-yl]-2-(4-isopropyl-phenyl)-acetamide]
39 | Cn1ccc2ccc(CC(=O)Nc3ccn(Cc4ccc(C#N)cn4)n3)cc21 [Example 302, N-[1-(5-Cyano-pyridin-2-ylmethyl)-1H-pyrazol-3-yl]-2-(1-methyl-1H-indol-6-yl)-acetamide]
78 | O=C(Cc1ccc(C2CC2)nc1)Nc1ccn(Cc2ccc(Cl)c(F)c2)n1 [Example 193, N-[1-(4-Chloro-3-fluoro-benzyl)-1H-pyrazol-3-yl]-2-(6-cyclopropyl-pyridin-3-yl)-acetamide]
301 | Cc1ccc(Cn2ccc(NC(=O)Cc3ccc4c(c3)c(C)nn4C)n2)nc1C#N [Example 368, N-[1-(6-Cyano-5-methyl-pyridin-2-ylmethyl)-1H-pyrazol-3-yl]-2-(1,3-dimethyl-1H-indazol-5-yl)-acetamide]
164 | Cn1ccc2cc(CC(=O)Nc3ccn(Cc4ccc(C#N)cc4)n3)cnc21 [Example 214, N-[1-(4-Cyano-benzyl)-1H-pyrazol-3-yl]-2-(1-methyl-1H-pyrrolo[2,3-b]pyridin-5-yl)-acetamide]
9.9 | CCN(CC)c1ccc(CC(=O)Nc2ccn(Cc3ccc(F)c(F)c3)n2)cn1 [Example 124, 2-(6-Diethylamino-pyridin-3-yl)-N-[1-(3,4-difluoro-benzyl)-1H-pyrazol-3-yl]-acetamide]
91 | Cc1cn(C)c2ncc(CC(=O)Nc3ccn(Cc4ccc(F)c(C#N)c4)n3)cc12 [Example 321, N-[1-(3-Cyano-4-fluoro-benzyl)-1H-pyrazol-3-yl]-2-(1,3-dimethyl-1H-pyrrolo[2,3-b]pyridin-5-yl)-acetamide]
